# Assay results published in ChEMBL document CHEMBL3621110, “Discovery and Development of the Aryl O-Sulfamate Pharmacophore for Oncology and Women's Health” (J Med Chem, 2015).
# pIC50, pKi: −log10 of the molar value.
# Columns and labels:
# Rattus norvegicus [1] = species: Rattus norvegicus; assay: animal or person; assay type: functional; conditions: Liver, po, 168 h
# Steryl-sulfatase [2] = biological target: T1, Steryl-sulfatase (Homo sapiens, UniProt P08842); assay type: microsomes, Placenta, Microsome
# T1 sequence (P08842 whole entry): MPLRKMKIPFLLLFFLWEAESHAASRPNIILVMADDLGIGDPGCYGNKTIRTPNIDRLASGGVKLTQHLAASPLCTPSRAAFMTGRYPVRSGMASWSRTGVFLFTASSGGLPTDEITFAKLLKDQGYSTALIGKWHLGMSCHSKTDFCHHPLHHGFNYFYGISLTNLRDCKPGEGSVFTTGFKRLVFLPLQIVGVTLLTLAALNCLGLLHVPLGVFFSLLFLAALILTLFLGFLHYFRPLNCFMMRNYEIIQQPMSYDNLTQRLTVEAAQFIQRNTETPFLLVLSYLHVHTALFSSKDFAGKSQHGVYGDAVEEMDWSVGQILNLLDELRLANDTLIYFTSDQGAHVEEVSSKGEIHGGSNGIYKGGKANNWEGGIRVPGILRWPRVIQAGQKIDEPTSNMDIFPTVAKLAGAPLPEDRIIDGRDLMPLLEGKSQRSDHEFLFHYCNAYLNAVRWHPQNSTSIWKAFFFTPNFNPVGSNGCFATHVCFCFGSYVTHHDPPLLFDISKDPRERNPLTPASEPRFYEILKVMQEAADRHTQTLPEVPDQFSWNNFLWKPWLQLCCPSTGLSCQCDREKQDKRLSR
# Rattus norvegicus [3] = species: Rattus norvegicus; assay: animal or person; assay type: functional; conditions: Liver, po, 120 h
# LNCaP = assay: cells; assay type: functional, cell-based; conditions: Homo sapiens
# cells [4] = assay type: functional, cell-based; conditions: Homo sapiens, PC-3
# cells [5] = assay type: functional, cell-based; conditions: Homo sapiens, A2780 ADR
# A2780cisR = assay: cells; assay type: functional, cell-based; conditions: Homo sapiens
# MCF7 [6] = assay: cells; assay type: functional; conditions: Homo sapiens
# MDA-MB-231 [7] = assay: cells; assay type: functional; conditions: Homo sapiens
# 4T1 [8] = assay: animal or person; assay type: functional; conditions: Mus musculus
# 4T1 [9] = assay: animal or person; assay type: functional; conditions: Mus musculus; remark: listed apart in the source
# in vivo [10] = conditions: MF1, mouse
# in vivo [11] = conditions: MF1, mouse; remark: listed apart in the source
# in vivo [12] = conditions: mouse, po, 10 mg/kg
# MCF7 [13] = assay: animal or person; assay type: functional, Homo sapiens; conditions: Mus musculus, MCF7, po
# MDA-MB-231 [14] = assay: animal or person; assay type: functional, Homo sapiens; conditions: Mus musculus
# MDA-MB-231 [15] = assay: animal or person; assay type: functional, Homo sapiens; conditions: Mus musculus; remark: listed apart in the source
# MCF7 [16] = assay: animal or person; assay type: functional, Homo sapiens; conditions: Mus musculus, MCF7, po; remark: listed apart in the source
# in vivo [17] = conditions: MF1, mouse; remark: listed apart in the source
# in vivo [18] = conditions: MF1, mouse; remark: listed apart in the source
# Steryl-sulfatase [19] = biological target: T1, Steryl-sulfatase; design: species or system Placenta, Microsome
# Cytochrome P450 1A2 = biological target: T2, Cytochrome P450 1A2 (Homo sapiens, UniProt P05177)
# T2 sequence (P05177 whole entry): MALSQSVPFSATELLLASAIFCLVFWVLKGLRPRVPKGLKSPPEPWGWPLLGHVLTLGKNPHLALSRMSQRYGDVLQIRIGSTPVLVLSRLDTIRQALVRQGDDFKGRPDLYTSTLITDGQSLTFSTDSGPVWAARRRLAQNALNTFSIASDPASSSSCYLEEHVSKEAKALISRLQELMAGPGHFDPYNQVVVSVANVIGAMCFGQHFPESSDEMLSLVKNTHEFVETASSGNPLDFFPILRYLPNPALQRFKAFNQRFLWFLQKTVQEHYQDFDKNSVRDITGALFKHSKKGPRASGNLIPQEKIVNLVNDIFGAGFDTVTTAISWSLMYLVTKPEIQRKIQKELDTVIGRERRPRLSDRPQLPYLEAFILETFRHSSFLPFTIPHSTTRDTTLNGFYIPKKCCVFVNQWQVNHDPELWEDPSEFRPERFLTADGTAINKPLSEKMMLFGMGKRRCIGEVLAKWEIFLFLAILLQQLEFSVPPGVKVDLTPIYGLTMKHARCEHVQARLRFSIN
smiles,measurement,setting,value
Cc1cc(=O)oc2cc(OS(N)(=O)=O)ccc12,inhibition in vivo at 10 mg/kg/day,Rattus norvegicus [1],85%
C[C@]12CC[C@@H]3c4ccc(OS(N)(=O)=O)cc4CC[C@H]3[C@@H]1CC(=O)N(Cc1cccnc1)C2=O,pIC50,Steryl-sulfatase [2],9.00
same,inhibition in vivo at 10 mg/kg/day,Rattus norvegicus [3],99%
CCc1cc2c(cc1OS(N)(=O)=O)CC[C@@H]1[C@@H]2CC[C@]2(C)C(=O)CC[C@@H]12,pIC50,LNCaP,7.00
same,pIC50,cells [4],7.00
same,pIC50,cells [5],7.00
same,pIC50,A2780cisR,7.00
same,GI50,MCF7 [6],340 nM
C[C@]12CC[C@@H]3c4ccc(OS(N)(=O)=O)c(Br)c4CC[C@H]3[C@@H]1CCC2=O,GI50,MCF7 [6],42 nM
COc1cccc(CN2Cc3cc(OC)c(OS(N)(=O)=O)cc3CC2C)c1 (stereo unspecified),GI50,MDA-MB-231 [7],234 nM
COc1cc2c(cc1OS(N)(=O)=O)CC[C@@H]1[C@@H]2CC[C@]2(C)[C@@H](OS(N)(=O)=O)CC[C@@H]12,inhibition in vivo at 20 mg/kg/day,4T1 [8],35%
same,inhibition in vivo at 20 mg/kg/day,4T1 [9],80.4%
same,LD50,in vivo [10],80 mg/kg
same,selectivity ratio,in vivo [11],4
same,bioavailability at 24 h,in vivo [12],85%
same,inhibition in vivo at 5 mg/kg,MCF7 [13],46%
same,ED50,MDA-MB-231 [14],20 mg/kg
same,ED50,MDA-MB-231 [15],10 mg/kg
same,inhibition in vivo at 20 mg/kg,MCF7 [16],52%
same,LD50,in vivo [17],30 mg/kg
same,selectivity ratio,in vivo [18],3
NS(=O)(=O)Oc1ccc2c3c(c(=O)oc2c1)CCC3,pIC50,Steryl-sulfatase [19],6.70
NS(=O)(=O)Oc1ccc2c3c(c(=O)oc2c1)CCCC3,pIC50,Steryl-sulfatase [19],7.15
NS(=O)(=O)Oc1ccc2c3c(c(=O)oc2c1)CCCCCC3,pIC50,Steryl-sulfatase [19],7.52
NS(=O)(=O)Oc1ccc2c3c(c(=O)oc2c1)CCCCCCC3,pIC50,Steryl-sulfatase [19],8.62
NS(=O)(=O)Oc1ccc2c3c(c(=O)oc2c1)CCCCCCCC3,pIC50,Steryl-sulfatase [19],9.00
NS(=O)(=O)Oc1ccc2c3c(c(=O)oc2c1)CCCCCCCCCC3,pIC50,Steryl-sulfatase [19],7.22
NS(=O)(=O)Oc1ccc2c3c(c(=O)oc2c1)CCCCCCCCCCC3,pIC50,Steryl-sulfatase [19],7.12
NS(=O)(=O)Oc1ccc2c3c(c(=O)oc2c1)CCCCCCCCCCCCC3,pIC50,Steryl-sulfatase [19],6.43
O=c1oc2cc(O)ccc2c2c1CCCCC2,pKi,Cytochrome P450 1A2,6.11
C[C@]12CC[C@@H]3c4ccc(OS(N)(=O)=O)cc4CC[C@H]3[C@@H]1CC(=O)NC2=O,pIC50,Steryl-sulfatase [2],7.70
CN1C(=O)C[C@H]2[C@@H]3CCc4cc(OS(N)(=O)=O)ccc4[C@H]3CC[C@]2(C)C1=O,pIC50,Steryl-sulfatase [2],7.92
CCN1C(=O)C[C@H]2[C@@H]3CCc4cc(OS(N)(=O)=O)ccc4[C@H]3CC[C@]2(C)C1=O,pIC50,Steryl-sulfatase [2],7.28
CCCCN1C(=O)C[C@H]2[C@@H]3CCc4cc(OS(N)(=O)=O)ccc4[C@H]3CC[C@]2(C)C1=O,pIC50,Steryl-sulfatase [2],6.42
CCCCCCN1C(=O)C[C@H]2[C@@H]3CCc4cc(OS(N)(=O)=O)ccc4[C@H]3CC[C@]2(C)C1=O,pIC50,Steryl-sulfatase [2],6.54
CC(C)(C)c1ccc(CN2C(=O)C[C@H]3[C@@H]4CCc5cc(OS(N)(=O)=O)ccc5[C@H]4CC[C@]3(C)C2=O)cc1,pIC50,Steryl-sulfatase [2],7.64
